This assay deals with p38 MAP kinase signal. In words: Western blotting of phosphorylated ATF2, downstream molecule of p38 MAP kinase signal. The conditions noted are these: Western blotting after 20 days from stimulation; 10 μM and 30 μM. It is filed as cell-based, human. How it is done:
*Human corneal endothelial cells (HCEC, where the cells were obtained and culturing method thereof): HCEC was cultured as follows. In short, Descemet's membrane including corneal endothelial cells was peeled off from a corneal for research purchased from the Seattle Eye Bank, and the corneal endothelial cells were mechanically peeled off with a basal membrane. […] Specifically, after digestion at 37° C., HCEC obtained from individual corneas was resuspended in a culture medium and plated on a well of a 12-well plate coated with FNC Coating Mix®. The culture medium was prepared in accordance with a partially-modified disclosed protocol. In short, a basal cultural medium containing OptiMEM-I (Life Technologies), 8% FBS, 5 ng/mL of epithelial growth factor (EGF) (Sigma-Aldrich Co., St. Louis, Mo.), 20 μg/mL of ascorbic acid (Sigma-Aldrich), 200 mg/L calcium chloride (Sigma-Aldrich), 0.08% chondroitin sulfate (Wako Pure Chemical Industries, Osaka) and 50 μg/mL of gentamicin was prepared and an acclimated medium was collected after inactivated 3T3 fibroblasts were cultured. The 3T3 fibroblasts were inactivated as previously described. […] Immunostaining was applied to the cells for observation with a fluorescence microscope. […]
A general note: A western blot detects proteins with antibodies after separation by electrophoresis.

In the case of `C[S+]([O-])c1ccc(-c2nc(-c3ccncc3)c(-c3ccc(F)cc3)[nH]2)cc1` (stereo not shown) [SB203580, 4-(4-fluorophenyl)-2-(4-methylsulfinylphenyl)-5-(4-pyridyl)-1H-imidazole], the “phosphorylation of ATF2” value is listed as “suppressed”.
